Assay results from patent US7060718B2, “Arylsulfonanilide ureas” (Amgen Inc., priority 1998, dated 2006).

How the values were obtained:
[1] = tested on: HeLa cells; assay: Tumor cell growth arrest in culture, Alamar Blue assay (HeLa); assay type: cell-based; conditions: Homo sapiens, concentration at which total growth inhibition occurred, 72 hours of treatment, triplicate
Method: (§1) The ability of test compounds to arrest the growth of tumor cells in culture was evaluated using HeLa cells, derived from a human cervical adenocarcinoma, and obtained from the American Type Culture Collection (ATCC, Rockville, Md.). Cells were grown in culture in the usual way. Test compounds were dosed in triplicate at concentrations ranging from 5 μM to 50 μM, and the cellular growth rate was calculated by harvesting the cells after 72 hours of treatment and measuring their metabolic activity using an Alamar Blue assay (Biosource International, Camarillo, Calif.). The degree of metabolic activity in the culture is proportional to the number of living cells. See, Ahmed et al., J. Immunol. Methods 1994, 170, 211. The change in growth rate for cells treated with test compounds was normalized to the growth of untreated cells and a plot of normalized cellular growth vs. compound concentration was made. The concentration at which total growth inhibition (TGI) occurred was determined. Compounds were similarly evaluated for cell growth inhibition using MCF-7/ ADR cells.

[2] = tested on: MCF-7/ADR cells; assay: Cell growth inhibition (MCF-7/ADR), evaluated similarly; assay type: cell-based; conditions: Homo sapiens, NCI/ADR-RES, concentration at which total growth inhibition occurred
Method: as §1

| SMILES | IC (TGI) [1] [µM] | IC (TGI) [2] [µM] | melting point [°C] |
| --- | --- | --- | --- |
| COc1ccc(NS(=O)(=O)c2c(F)c(F)c(F)c(F)c2F)cc1NC(N)=O [Compound 5] | < 5 | < 5 | 226 |
| CCOC(=O)CNC(=O)Nc1cc(NS(=O)(=O)c2c(F)c(F)c(F)c(F)c2F)ccc1OC [Compound 6] | > 40 | > 40 | 164 to 170 |
| COc1ccc(NS(=O)(=O)c2c(F)c(F)c(F)c(F)c2F)cc1NC(=O)n1nccc1N [Compound 7] | < 5 | < 5 | 140 to 144 |
| COc1ccc(NS(=O)(=O)c2c(F)c(F)c(F)c(F)c2F)cc1NC(=O)NCc1ccco1 [Compound 8] | < 5 | < 5 | 208 |
| COc1ccc(NS(=O)(=O)c2c(F)c(F)c(F)c(F)c2F)cc1NC(=O)N1CCOCC1 [Compound 9] | 5 to 40 | 5 to 40 |  |
| COc1ccc(NS(=O)(=O)c2c(F)c(F)c(F)c(F)c2F)cc1NC(=O)NCC(O)CO (centres unmarked) [Compound 10] | 5 to 40 | 5 to 40 |  |
| COc1ccc(NS(=O)(=O)c2c(F)c(F)c(F)c(F)c2F)cc1NC(=O)NCC(N)=O [Compound 11] | > 40 | > 40 |  |
| COc1ccc(NS(=O)(=O)c2c(F)c(F)c(F)c(F)c2F)cc1NC(=O)NC(CO)CO [Compound 12] | > 40 | > 40 |  |
| COc1ccc(NS(=O)(=O)c2c(F)c(F)c(F)c(F)c2F)cc1NC(=O)NCCO [Compound 13] | 5 to 40 | > 40 |  |
| COc1ccc(NS(=O)(=O)c2c(F)c(F)c(F)c(F)c2F)cc1NC(=O)NCCCO [Compound 14] | 5 to 40 | > 40 |  |
| COc1ccc(NS(=O)(=O)c2c(F)c(F)c(F)c(F)c2F)cc1NC(=O)N(CCO)CCO [Compound 15] | > 40 | > 40 |  |
| COc1ccc(NS(=O)(=O)c2c(F)c(F)c(F)c(F)c2F)cc1NC(=O)Nc1ccccc1 [Compound 16] | 5 to 40 | > 40 |  |
| COc1ccc(NS(=O)(=O)c2c(F)c(F)c(F)c(F)c2F)cc1NC(=O)Nc1nccs1 [Compound 17] | > 40 | > 40 |  |
| COc1ccc(NS(=O)(=O)c2c(F)c(F)c(F)c(F)c2F)cc1NC(=O)n1ncnc1N [Compound 18] | < 5 | < 5 |  |
| COc1ccc(NS(=O)(=O)c2c(F)c(F)c(F)c(F)c2F)cc1NC(=O)Nc1nnn[nH]1 [Compound 19] | < 5 | 5 to 40 |  |
| COc1ccc(NS(=O)(=O)c2c(F)c(F)c(F)c(F)c2F)cc1NC(=O)Nc1nncs1 [Compound 20] | 5 to 40 | 5 to 40 |  |
| COCCNC(=O)Nc1cc(NS(=O)(=O)c2c(F)c(F)c(F)c(F)c2F)ccc1OC [Compound 21] | 5 to 40 | > 40 |  |
